This is an account of results in publication PMC5336612, “Therapeutic effects of different doses of polyethylene glycosylated porcine glucagon-like peptide-2 on ulcerative colitis in male rats” (BMC Gastroenterology, 2017).

For series [1] the following is noted: rat, in vivo; cited from earlier work.
In series [2] the test system is experimental rat model of ulcerative colitis (DSS). The series can be described thus: Growth performance of DSS colitis rats (body weight, intestinal and colonic length and weight). It is filed as in vivo. On the procedure:
Animal studies were conducted in accordance with the guidelines of the Zhejiang Farm Animal Welfare Council of China and approved by the ethics committee of Zhejiang Academy of Agricultural Sciences. Thirty-five male Sprague–Dawley rats were allocated into five treatments: control, DSS, DSS + PEG–pGLP-2(L), DSS + PEG–pGLP-2(M) and DSS + PEG–pGLP-2(H). Each treatment was performed in seven replicates on one rat. The rats were housed in a plastic bottom, wire-lid cages, maintained on a 12 h: 12 h light–dark cycle and allowed to acclimatise to the animal facility for 3 days. Rats in control group received only water; other rats were fed with 5% (w/v) DSS through their drinking water for 6 days from the first day of experiment, followed by 2 days of water consumption. The rats from the DSS + PEG–pGLP-2(L), DSS + PEG–pGLP-2(M) and DSS + PEG–pGLP-2(H) groups were intraperitoneally administered with 12.5, 25 and 100 nmol/kg PEG–pGLP-2, respectively, in 0.3 mL of saline solution daily from day 1 to day 6 of the trial. The rats in the control and DSS groups were administered with the same volume of saline solution. During the experimental period, behaviour and body weight were monitored daily. On day 8, all rats were anesthetised and sacrificed to collect their intestinal sample.
Samples collection was prepared as previously described. The segment from the pylorus to the Trietz ligament and from the ileocecal valve to the rectum was considered the duodenum and colon, respectively; these segments were cut free from their mesentery and immediately placed on ice. The duodenum and colon were cleaned of luminal contents, weighed and measured with a balance and a ruler. The middle segments (1 cm) of duodenum and colon were fixed in 10% formalin for 48 h and embedded in paraffin using standard techniques for histology. One centimetre of the distal segment of colon was collected for RNA isolation, which was immediately placed in 1 mL of RNA locker.

Setting [3] is: 5% DSS colitis, male SD rats, 12.5 nmol/kg i.p. daily d1-6 (L), day 8, mean ± SD.
Where [4] appears, read: 5% DSS colitis, male SD rats, 25 nmol/kg i.p. daily d1-6 (M), day 8, mean ± SD.
Where [5] appears, read: 5% DSS colitis, male SD rats, 100 nmol/kg i.p. daily d1-6 (H), day 8, mean ± SD.
Where [6] appears, read: DSS colitis rats, 12.5 nmol/kg i.p. daily d1-6 (L), individual rats, raw data.
[7] abbreviates: DSS colitis rats, 25 nmol/kg i.p. daily d1-6 (M), individual rats, raw data.
Where [8] appears, read: DSS colitis rats, 100 nmol/kg i.p. daily d1-6 (H), individual rats, raw data.

“And” between values parts separate entries of the source, which are not always exact repeats. Identical values can stand only once. Marks after values point to notes of the source that are not given here. Where no end group is shown, it is not given here.

For the substance “polyethylene glycosylated porcine glucagon-like peptide-2 (HGDGSFSDEMNTVLDNLATRDFINWLLHTKITDSL; also: mono-PEGylated with mPEG5k-SPA, site not given here; UniProt P01274 146-180, looked up, variant A2G) [PEG–pGLP-2, mono-PEGylated p[Gly^2]GLP-2 conjugate prepared with mPEG5k-SPA; long-acting form of pGLP-2]”, in series [1], the half-life was 3.37 h and the t1/2 is 3.38 h. In addition, in series [2] (setting [3]), the Body weight change is recorded as 21.45 ± 2.00^b %, the Colonic length is listed as 14.74 ± 1.90^a cm and the Intestinal length was 94.50 ± 7.07 cm. In series [2] (setting [4]), the Body weight change is 21.46 ± 4.65^b %, the Colonic length is given as 14.48 cm and the Intestinal length was determined as 99.10 ± 8.03 cm. Also, in series [2] (setting [5]), the Body weight change was 20.63 ± 3.4^b %, the Colonic length came to 13.42 cm and the Intestinal length is 99.56 ± 6.82 cm. Further, in series [2] (setting [6]), the Colonic weight was 3.68 g and 1.94 g and 1.55 g and 1.6 g and 3.59 g and 2.4 g; the Intestinal length is 99.0 cm and 95.0 cm and 102.0 cm and 93.0 cm; the Intestinal weight is 8.25 g and 6.51 g and 7.68 g and 5.4 g and 8.63 g and 9.24 g; the final weight is 240 g and 217 g and 219 g and 157 g and 223 g. Also, in series [2] (setting [7]), the Colonic weight was 3.22 g and 2.19 g and 2.7 g and 2.5 g and 3.3 g and 3 g; the Intestinal weight was 6 g and 6.93 g and 9 g and 8.4 g and 8.73 g and 7.5 g; the final weight was 220 g and 180 g and 246 g and 182 g and 230 g and 212 g. Further, in series [2] (setting [8]), the Colonic length was 14.7 cm and 12.7 cm and 13.7 cm and 13.0 cm; the Colonic weight is 2.55 g and 2.37 g and 1.85 g and 2.2 g and 2.94 g; the Intestinal weight was 10 g and 7.62 g and 7.22 g and 8 g and 7.87 g and 9.26 g; the final weight is 221 g and 218 g and 214 g and 233 g and 219 g and 242 g.

By half-life is commonly meant how long it takes for the measured level to halve.
